Literature values, collected in patent US20220378704A1, “PROCESS FOR THE PREPARATION OF A NANOPARTICULATE ACTIVE INGREDIENT” (Bayer Aktiengesellschaft, priority 2019, published 2022).

Assays:
[1] = within 5 min

specific surface area (before / after LASP process in the MCR): 0.66 m^2/g
mean particle size (before LASP process): 55 μm
dissolution rate [1]: 35%
Compound: C#C[C@]1(O)CC[C@H]2[C@@H]3CCC4=Cc5oncc5C[C@]4(C)[C@H]3CC[C@@]21C [raw danazol particles, danazol]
